Read-outs that look alike come from different tables or passages of the source.
What was measured:
Type in all cases: in vivo, human
HGF = experiment: Plasma biomarker HGF; settings: for HGF raw data, Mean (SD) / HGF least square means % baseline±SEM: IPF patients
Description: (§1) All patients, investigators, sites and study sponsor personnel were blinded to the study group assignments throughout the study. Patients underwent study-specific assessments on days 2, 3, 7, 14 and 15, and a post-study assessment was carried out 26–30 days after the last day of the study period. Assessments included vital signs (supine blood pressure, pulse, oxygen saturation, oral temperature and respiratory rate), spirometry, 12-lead ECG, physical examination, laboratory safety screen (haematology, biochemistry, urinalysis and urinary drugs of abuse screen) and blood sampling for PK measurements. All adverse events and concomitant medications were recorded from the time of the screening visit until the post-study follow-up visit. BAL was performed at day −1 (24 h before the first dose) and at day 14 (2 h after the last dose). The BAL procedure was performed as per international guidelines. Briefly, 240 mL of 0.9% saline at room temperature was instilled in 40 mL aliquots into the right middle lobe and aspirated by suction after each aliquot.
(§2) BAL cells were separated from fluid by centrifugation, and cells were collected, stained with antibodies (supplementary material) and then fixed before analysis using a LSR Fortessa flow cytometer (Becton Dickinson, Franklin Lakes, NJ, USA). Data were analysed using FlowJo software (Tree Star, Ashland, OR, USA). Macrophages were identified as having high side scatter properties and human leukocyte antigen-DR positivity. Gal-3 expression (mean fluorescence intensity) was determined from the macrophage gate (supplementary figures S1 and S2). […] Samples were analysed by magnetic Luminex assay (R&D Systems, Minneapolis, MN, USA) or ELISA.
(§3) For part 2 of the study, placebos were combined from the three dose-specific cohorts into a pooled control group (n=9). For alveolar macrophage Gal-3 expression and the plasma biomarkers, ANCOVA was performed for percentage of baseline ((day 14/day 1)×100). The ANCOVA model included effects for treatment group and baseline (day 1) value. […] An additional analysis including dose as a continuous covariate was also performed. The Pearson correlation coefficient (r) and associated p-value were calculated for percentage of baseline and day 14 values between plasma biomarkers and alveolar macrophage Gal-3 expression. […] The analysis is exploratory and there was no pre-planned adjustment for multiple testing; the study was not powered for this. Alveolar macrophage Gal-3 expression was considered the primary exploratory analysis with the pre-selected biomarkers secondary. A Bonferroni correction for multiple testing of the secondary end-points comparing the 10 mg group with placebo gives a critical value of 0.0063. Data are presented as the difference in least square means with 95% confidence interval and p-value unless otherwise stated. All analyses were performed using SAS version 9.4 (SAS Institute, Cary, NC, USA). […]

YKL-40 (CHI3L1) = experiment: Plasma biomarker YKL-40; settings: for YKL-40 (CHI3L1) raw data, Mean (SD) / YKL-40 (CHI3L1) least square means % baseline±SEM: IPF patients
Description: as §1, §2, §3

Gal-3 = settings: for Galectin-3 raw data, Mean (SD) / Gal-3 least square means % baseline±SEM: IPF patients; for Galectin-3 raw data, Mean (SD): Day 14; for Gal-3 least square means % baseline±SEM: day 14
Description: as §1, with “BAL was performed at day −1 (24 h before the first dose) and at day 14 (2 h after the last dose).” left out
as §2
as §3, with “Data are presented as the difference in least square means with 95% confidence interval and p-value unless otherwise stated.” left out
Plasma pharmacodynamic biomarkers
The following pre-specified biomarkers were evaluated in samples of plasma based on the basis

Periostin = experiment: Plasma biomarker periostin; settings: for Periostin raw data, Mean (SD) / Periostin least square means % baseline±SEM: IPF patients
Description: as §1, §2, §3

[1] = Plasma pharmacokinetics, part 1 (healthy subjects)
Description: Subjects were discharged 24 h post-dose (day 2) provided there were no safety concerns, and returned for three outpatient visits on days 3, 8 and 14 post-dose, with a post-study follow-up between days 26 and 30. Safety and PK assessments were made at predetermined time-points.
Full plasma PK profiles were conducted on days 1 (first day of dosing) and 14 (last day of dosing). […] Standard noncompartmental methods were applied to derive PK parameters using Phoenix WinNonlin version 6.3 (Certara, Sheffield, UK). […] Drug compartment measurements in BAL alveolar macrophages and fluid were determined as described previously.

PTX3 = experiment: Plasma biomarker PTX3; settings: for Pentraxin-3 (PTX3) raw data, Mean (SD) / PTX3 least square means % baseline±SEM: IPF patients
Description: as §1, §2, §3

[2] = human, inhaled or intranasal, single inhaled 1.5 mg, mean±SD
[3] = human, inhaled or intranasal, single inhaled 3 mg, mean±SD
[4] = human, inhaled or intranasal, single inhaled 10 mg, mean±SD
[5] = human, inhaled or intranasal, single inhaled 20 mg, mean±SD
[6] = human, inhaled or intranasal, single inhaled 50 mg, mean±SD

OC[C@H]1O[C@@H](S[C@@H]2O[C@H](CO)[C@H](O)[C@H](n3cc(-c4cccc(F)c4)nn3)[C@H]2O)[C@H](O)[C@@H](n2cc(-c3cccc(F)c3)nn2)[C@H]1O [TD139]
HGF difference in least square means % baseline (95% CI) (HGF; 10 mg vs placebo, ANCOVA): −37.2 (−85.5–11.2) % baseline
HGF raw data, Mean (SD) (HGF; Day 14, 0.3 mg): 109.8 (23.24) pg/ml
HGF raw data, Mean (SD) (HGF; Day 14, 3 mg): 159.1 (110.2) pg/ml
HGF raw data, Mean (SD) (HGF; Day 14, 10 mg): 131.2 (44.47) pg/ml
HGF least square means % baseline±SEM (HGF; day 14, 0.3 mg once daily): 100.3±17.5 % baseline
HGF least square means % baseline±SEM (HGF; day 14, 3 mg once daily): 103.2±16.9 % baseline
HGF least square means % baseline±SEM (HGF; day 14, 10 mg once daily): 73.2±18.8 % baseline
YKL-40 (CHI3L1) difference in least square means % baseline (95% CI) (YKL-40 (CHI3L1); 10 mg vs placebo, ANCOVA): −28.9 (−55.9– −1.9) % baseline
YKL-40 (CHI3L1) raw data, Mean (SD) (YKL-40 (CHI3L1); Day 14, 0.3 mg): 45140.2 (34041.85) pg/ml
YKL-40 (CHI3L1) raw data, Mean (SD) (YKL-40 (CHI3L1); Day 14, 3 mg): 146819.5 (40114.19) pg/ml
YKL-40 (CHI3L1) raw data, Mean (SD) (YKL-40 (CHI3L1); Day 14, 10 mg): 79975.5 (38590.77) pg/ml
YKL-40 (CHI3L1) least square means % baseline±SEM (YKL-40 (CHI3L1); day 14, 0.3 mg once daily): 84.1±12.5 % baseline
YKL-40 (CHI3L1) least square means % baseline±SEM (YKL-40 (CHI3L1); day 14, 3 mg once daily): 50.2±18.6 % baseline
YKL-40 (CHI3L1) least square means % baseline±SEM (YKL-40 (CHI3L1); day 14, 10 mg once daily): 51.6±10.4 % baseline
circulating Gal-3 plasma concentrations (percentage of baseline), difference versus placebo (Gal-3; 10 mg dose group): −67.63%
Galectin-3 raw data, Mean (SD) (Gal-3; plasma, 0.3 mg): 13290.4 (4951.24) pg/ml
Galectin-3 raw data, Mean (SD) (Gal-3; plasma, 3 mg): 9298.5 (3499.54) pg/ml
Galectin-3 raw data, Mean (SD) (Gal-3; plasma, 10 mg): 4486.3 (697.25) pg/ml
Gal-3 least square means % baseline±SEM (Gal-3; plasma, 0.3 mg once daily): 113.9±21.2 % baseline
Gal-3 least square means % baseline±SEM (Gal-3; plasma, 3 mg once daily): 119.5±21.3 % baseline
Gal-3 least square means % baseline±SEM (Gal-3; plasma, 10 mg once daily): 53.4±23.5 % baseline
Gal-3 difference in least square means % baseline (95% CI) (Gal-3; plasma, 10 mg vs placebo, ANCOVA): −67.6 (−126.9– −8.4) % baseline
Periostin difference in least square means % baseline (95% CI) (Periostin; 10 mg vs placebo, ANCOVA): −5.4 (−18.8–8.0) % baseline
Periostin raw data, Mean (SD) (Periostin; Day 14, 0.3 mg): 125952.3 (17487.63) pg/ml
Periostin raw data, Mean (SD) (Periostin; Day 14, 3 mg): 142019.1 (30390.08) pg/ml
Periostin raw data, Mean (SD) (Periostin; Day 14, 10 mg): 108663.7 (24686.82) pg/ml
Periostin least square means % baseline±SEM (Periostin; day 14, 0.3 mg once daily): 114.0±5.3 % baseline
Periostin least square means % baseline±SEM (Periostin; day 14, 3 mg once daily): 99.3±5.2 % baseline
Periostin least square means % baseline±SEM (Periostin; day 14, 10 mg once daily): 93.1±5.0 % baseline
AUC(0-inf) [1, 2]: 17.9 ± 14 ng·h/mL
half-life [1, 2]: 1.13 ± 0.63 h
Cmax ([1]; human, inhaled or intranasal, single inhaled 1.5 mg, mean±SD, read-out: Cmax): 2.37 ± 1.48 ng/mL
AUC(0-inf) [1, 3]: 70.8 ± 22.7 ng·h/mL
half-life [1, 3]: 3 ± 0.82 h
Cmax ([1]; human, inhaled or intranasal, single inhaled 3 mg, mean±SD, read-out: Cmax): 8.21 ± 2.67 ng/mL
AUC(0-inf) [1, 4]: 184 ± 64.5 ng·h/mL
half-life [1, 4]: 1.19 ± 0.94 h
Cmax ([1]; human, inhaled or intranasal, single inhaled 10 mg, mean±SD, read-out: Cmax): 22.6 ± 8.69 ng/mL
AUC(0-inf) [1, 5]: 544 ± 114 ng·h/mL
half-life [1, 5]: 1.31 ± 1.8 h
Cmax ([1]; human, inhaled or intranasal, single inhaled 20 mg, mean±SD, read-out: Cmax): 81.1 ± 27 ng/mL
AUC(0-inf) [1, 6]: 1160 ± 532 ng·h/mL
half-life [1, 6]: 0.81 ± 0.8 h
Cmax ([1]; human, inhaled or intranasal, single inhaled 50 mg, mean±SD, read-out: Cmax): 126 ± 43.3 ng/mL
Cmax ([1]; single inhaled 0.15 mg, BLQ: below limit of quantification (0.5 ng·mL^−1)): BLQ
PTX3 difference in least square means % baseline (95% CI) (PTX3; 10 mg vs placebo, ANCOVA): −69.6 (−220.3–81.2) % baseline
Pentraxin-3 (PTX3) raw data, Mean (SD) (PTX3; Day 14, 0.3 mg): 116.3 (214.7) pg/ml
Pentraxin-3 (PTX3) raw data, Mean (SD) (PTX3; Day 14, 3 mg): 629.9 (581.55) pg/ml
Pentraxin-3 (PTX3) raw data, Mean (SD) (PTX3; Day 14, 10 mg): 2534.7 (4451.2) pg/ml
PTX3 least square means % baseline±SEM (PTX3; day 14, 0.3 mg once daily): 51.8±68.6 % baseline
PTX3 least square means % baseline±SEM (PTX3; day 14, 3 mg once daily): 74.2±53.1 % baseline
PTX3 least square means % baseline±SEM (PTX3; day 14, 10 mg once daily): 67.0±56.1 % baseline

Reference: publication PMC8156151 (The European Respiratory Journal, 2021)
